Reference: patent publication US10961198B2, “Farnesoid X receptor agonists and uses thereof” (Metacrine, Inc., priority 2017, dated 2021)

The molecules below were run against hFXR (Homo sapiens (Human), UniProt Q96RI1) (assay: In Vitro FXR Assay (TK)). Details: CV-1 cells transfected with hFXR, hRXR, TK-ECRE-luc and pCMX-YFP; incubated 18 hrs; luminescence; maximum efficacy <25% of the Fexarmine control classified as '+'.
Chain of hFXR (Q96RI1 whole entry): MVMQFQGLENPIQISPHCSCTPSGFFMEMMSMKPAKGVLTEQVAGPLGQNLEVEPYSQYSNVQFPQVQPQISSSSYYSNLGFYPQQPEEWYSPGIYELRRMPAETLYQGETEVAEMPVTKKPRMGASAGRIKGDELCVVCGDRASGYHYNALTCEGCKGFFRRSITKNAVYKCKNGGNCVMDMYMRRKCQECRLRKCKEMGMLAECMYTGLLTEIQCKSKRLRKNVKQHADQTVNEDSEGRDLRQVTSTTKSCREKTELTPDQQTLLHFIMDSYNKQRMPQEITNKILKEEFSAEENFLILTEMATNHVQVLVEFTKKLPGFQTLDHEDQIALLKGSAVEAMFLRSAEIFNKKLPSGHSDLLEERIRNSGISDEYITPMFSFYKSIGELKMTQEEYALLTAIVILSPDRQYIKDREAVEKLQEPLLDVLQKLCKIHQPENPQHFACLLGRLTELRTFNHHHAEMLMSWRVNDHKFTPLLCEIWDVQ
Chain of hFXR (P19793 whole entry partner): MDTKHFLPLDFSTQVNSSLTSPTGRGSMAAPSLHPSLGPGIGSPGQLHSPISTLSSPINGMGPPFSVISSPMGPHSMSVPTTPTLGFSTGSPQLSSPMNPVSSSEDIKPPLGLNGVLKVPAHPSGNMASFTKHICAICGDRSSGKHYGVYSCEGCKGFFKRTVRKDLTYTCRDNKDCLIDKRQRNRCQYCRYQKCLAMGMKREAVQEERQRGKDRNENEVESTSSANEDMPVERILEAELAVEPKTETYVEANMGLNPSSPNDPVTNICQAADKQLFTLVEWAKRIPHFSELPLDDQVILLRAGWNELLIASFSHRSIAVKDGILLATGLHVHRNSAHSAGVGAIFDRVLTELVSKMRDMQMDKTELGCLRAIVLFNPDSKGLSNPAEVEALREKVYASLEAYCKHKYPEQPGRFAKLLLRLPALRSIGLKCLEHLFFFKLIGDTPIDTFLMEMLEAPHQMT
Assay type: cell-based
Method in brief: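 CV-1 cells in DMEM with 10% charcoal-stripped FBS were transiently co-transfected with hFXR, hRXR, TK-ECRE-luc reporter and pCMX-YFP plasmids over 18 h at 37 °C. Compounds serially diluted in DMSO were added for 18 h; cells were then lysed and luciferase luminescence measured.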
`COc1ccc([C@H]2CC[C@H](CN(c3cccc(-c4cnn(C(C)C)c4)c3)C(=O)[C@H]3CC[C@@](C)(O)CC3)CC2)cc1C` [Compound 5.28, (1s, 4s)-4-Hydroxy-N-(3-(1-isopropyl-1H-pyrazol-4-yl)phenyl)-N-((trans-4-(4-methoxy-3-methylphenyl)cyclohexyl)methyl)-4-methylcyclohexanecarboxamide] showed an EC50 of no more than 250 nM. `COc1ncc([C@H]2CC[C@H](CN(c3cc(-c4cnn(C(C)C)c4)ccn3)C(=O)[C@H]3CC[C@H](O)CC3)CC2)cc1C` [Compound 5.29, trans-4-Hydroxy-N-(4-(1-Isopropyl-1H-pyrazol-4-yl)pyridin-2-yl)-N-((trans-4-(6-methoxy-5-methylpyridin-3-yl)cyclohexyl)methyl)cyclohexanecarboxamide] was tested, and the EC50 was no more than 250 nM. Molecule `COc1ncc([C@H]2CC[C@H](CN(c3cc(-c4cnn(C(C)C)c4)ccn3)C(=O)[C@H]3CC[C@H](O)CC3)CC2)cc1Cl` [Compound 5.30, trans-N-((trans-4-(5-Chloro-6-methoxypyridin-3-yl)cyclohexyl)methyl)-4-hydroxy-N-(4-(1-isopropyl-1H-pyrazol-4-yl)pyridin-2-yl)cyclohexanecarboxamide] has an EC50 of no more than 250 nM. Molecule `COc1ccc(C23CCC(CN(c4cccc(-c5cnn(C6CC6)c5)c4)C(=O)[C@H]4CC[C@H](O)CC4)(CC2)CC3)cc1C` [Compound 6, trans-N-(3-(1-Cyclopropyl-1H-pyrazol-4-yl)phenyl)-4-hydroxy-N-((4-(4-methoxy-3-methylphenyl)bicyclo[2.2.2]octan-1-yl)methyl)cyclohexanecarboxamide] has an EC50 of no more than 250 nM. `CN(C)c1ccc(C23CCC(CN(c4cccc(-c5cnn(C6CC6)c5)c4)C(=O)[C@H]4CC[C@H](O)CC4)(CC2)CC3)cn1` [Compound 6.01, trans-N-(3-(1-Cyclopropyl-1H-pyrazol-4-yl)phenyl)-N-((4-(6-(dimethylamino)pyridin-3-yl)bicyclo[2.2.2]octan-1-yl)methyl)-4-hydroxycyclohexanecarboxamide] showed an EC50 of no more than 250 nM. For `COc1ccc(C23CCC(CN(c4cccc(-c5cnn(C(C)C)c5)c4)C(=O)[C@H]4CC[C@H](O)CC4)(CC2)CC3)cc1C` [Compound 6.02, trans-4-Hydroxy-N-(3-(1-isopropyl-1H-pyrazol-4-yl)phenyl)-N-((4-(4-methoxy-3-methylphenyl)bicyclo[2.2.2]octan-1-yl)methyl)cyclohexanecarboxamide], the EC50 was no more than 250 nM. `COc1ccc([C@H]2CC[C@H](CN(c3cccc(-c4cnn(C(C)C)c4)c3)C(=O)[C@H]3CC[C@H](N)CC3)CC2)cc1C` [Compound 7, trans-4-Amino-N-(3-(1-isopropyl-1H-pyrazol-4-yl)phenyl)-N-((trans-4-(4-methoxy-3-methylphenyl)cyclohexyl)methyl)cyclohexanecarboxamide] gave an EC50 of no less than 1000 nM. For `COc1ccc(C23CCC(CN(c4cccc(-c5cnn(C6CC6)c5)c4)C(=O)[C@H]4CC[C@H](N)CC4)(CC2)CC3)cc1C` [Compound 7.01, trans-4-Amino-N-(3-(1-cyclopropyl-1H-pyrazol-4-yl)phenyl)-N-((4-(4-methoxy-3-methylphenyl)bicyclo[2.2.2]octan-1-yl)methyl)cyclohexanecarboxamide], the EC50 was 250 to 1000 nM. `Cc1cc([C@H]2CC[C@H](CN(c3cccc(-c4cnn(C5CC5)c4)c3)C(=O)[C@H]3CC[C@H](O)CC3)CC2)ccc1O` [Compound 8, trans-N-(3-(1-Cyclopropyl-1H-pyrazol-4-yl)phenyl)-4-hydroxy-N-((trans-4-(4-hydroxy-3-methylphenyl)cyclohexyl)methyl)cyclohexanecarboxamide] gave an EC50 of 250 to 1000 nM.
